Assay results: the supplement of paper PMC10307832

Experiments:
Test in all cases: relative viability (nuclei count vs DMSO), 5 days (fraction); higher = more cells survive
[1] = compound: Nc1nc2[nH]cc(CCc3ccc(C(=O)N[C@@H](CCC(=O)O)C(=O)O)cc3)c2c(=O)[nH]1 [Pemetrexed] + CC1(C)CCC(c2ccc(Cl)cc2)=C(CN2CCN(c3ccc(C(=O)NS(=O)(=O)c4ccc(N[C@H](CCN5CCOCC5)CSc5ccccc5)c(S(=O)(=O)C(F)(F)F)c4)cc3)CC2)C1 [Navitoclax] (partner 0.5 µM)
Procedure, shortened: (§1)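 Relative viability divides the nuclei count in treated wells by that in vehicle wells. Lung cancer cell lines were seeded in 1536-well plates, dosed by pin tool the next day, and fixed and stained after 5 days in one step with final 0.05% Triton X-100, 1% formaldehyde and 1 ug/ml Hoechst. Dosing was a single drug or a fixed anchor-drug dose plus five library-drug doses (not always all listed) in √10 steps, and values are medians of duplicate plates imaged at 4×.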

[2] = compound: CC[C@H](Nc1ncnc2[nH]cnc12)c1nc2cccc(F)c2c(=O)n1-c1ccccc1 [Idelalisib] + CC(=O)c1c(C)c2cnc(Nc3ccc(N4CCNCC4)cn3)nc2n(C2CCCC2)c1=O [Palbociclib] (partner 0.5 µM)
Procedure, shortened: as §1

[3] = compound: Nc1nc2[nH]cc(CCc3ccc(C(=O)N[C@@H](CCC(=O)O)C(=O)O)cc3)c2c(=O)[nH]1 [Pemetrexed] + Nc1ncn([C@H]2C[C@H](O)[C@@H](CO)O2)c(=O)n1 [Decitabine] (partner 2 µM)
Procedure, shortened: as §1

[4] = compound: Nc1nc2[nH]cc(CCc3ccc(C(=O)N[C@@H](CCC(=O)O)C(=O)O)cc3)c2c(=O)[nH]1 [Pemetrexed] + CCNC(=O)c1noc(-c2cc(C(C)C)c(O)cc2O)c1-c1ccc(CN2CCOCC2)cc1 [Luminespib] (partner 0.01 µM)
Procedure, shortened: as §1

Cell Line 201T has a relative viability ([1]; first compound 0.002 µM) of 1.11, a relative viability ([1]; first compound 0.006325 µM) of 1.2 and a relative viability ([1]; first compound 0.02 µM) of 1.24. For the same cell line, the relative viability ([1]; first compound 0.06325 µM) was 1.26, the relative viability ([1]; first compound 0.2 µM) was 1.18 and the relative viability ([2]; first compound 0.04 µM) was 0.375. For the same cell line, the relative viability ([2]; first compound 0.1265 µM) was 0.344, the relative viability ([2]; first compound 0.4 µM) was 0.322 and the relative viability ([2]; first compound 1.265 µM) was 0.36. The relative viability ([2]; first compound 4 µM) was 0.294, the relative viability ([3]; first compound 0.002 µM) was 0.712 and the relative viability ([3]; first compound 0.006325 µM) was 0.803. The relative viability ([3]; first compound 0.02 µM) was 0.808, the relative viability ([3]; first compound 0.06325 µM) was 0.849 and the relative viability ([3]; first compound 0.2 µM) was 0.85. It also gave a relative viability ([4]; first compound 0.002 µM) of 1.03, a relative viability ([4]; first compound 0.006325 µM) of 1.04 and a relative viability ([4]; first compound 0.02 µM) of 1.05. For the same cell line, the relative viability ([4]; first compound 0.06325 µM) was 1.1 and the relative viability ([4]; first compound 0.2 µM) was 1.09.

For A549, the relative viability ([1]; first compound 0.002 µM) was 1.11, the relative viability ([1]; first compound 0.006325 µM) was 1.13 and the relative viability ([1]; first compound 0.02 µM) was 1.25. The relative viability ([1]; first compound 0.06325 µM) was 1.22, the relative viability ([1]; first compound 0.2 µM) was 1.12 and the relative viability ([3]; first compound 0.002 µM) was 0.234. For the same cell line, the relative viability ([3]; first compound 0.006325 µM) was 0.213, the relative viability ([3]; first compound 0.02 µM) was 0.194 and the relative viability ([3]; first compound 0.06325 µM) was 0.346. It also gave a relative viability ([3]; first compound 0.2 µM) of 0.281.

A-427 showed a relative viability ([1]; first compound 0.002 µM) of 0.891, a relative viability ([1]; first compound 0.006325 µM) of 0.979 and a relative viability ([1]; first compound 0.02 µM) of 0.978. The relative viability ([1]; first compound 0.06325 µM) was 1.04, the relative viability ([1]; first compound 0.2 µM) was 0.954 and the relative viability ([2]; first compound 0.04 µM) was 0.558. The relative viability ([2]; first compound 0.1265 µM) was 0.542, the relative viability ([2]; first compound 0.4 µM) was 0.491 and the relative viability ([2]; first compound 1.265 µM) was 0.559. It also gave a relative viability ([2]; first compound 4 µM) of 0.505, a relative viability ([3]; first compound 0.002 µM) of 0.585 and a relative viability ([3]; first compound 0.006325 µM) of 0.537. The relative viability ([3]; first compound 0.02 µM) was 0.545, the relative viability ([3]; first compound 0.06325 µM) was 0.572 and the relative viability ([3]; first compound 0.2 µM) was 0.544. It also gave a relative viability ([4]; first compound 0.002 µM) of 0.912, a relative viability ([4]; first compound 0.006325 µM) of 0.923 and a relative viability ([4]; first compound 0.02 µM) of 0.968. For the same cell line, the relative viability ([4]; first compound 0.06325 µM) was 0.793 and the relative viability ([4]; first compound 0.2 µM) was 0.956.

With ABC-1 the relative viability ([2]; first compound 0.04 µM) was 0.546, the relative viability ([2]; first compound 0.1265 µM) was 0.6 and the relative viability ([2]; first compound 0.4 µM) was 0.664. For the same cell line, the relative viability ([2]; first compound 1.265 µM) was 0.686, the relative viability ([2]; first compound 4 µM) was 0.709 and the relative viability ([3]; first compound 0.002 µM) was 1.15. The relative viability ([3]; first compound 0.006325 µM) was 1.02, the relative viability ([3]; first compound 0.02 µM) was 1.32 and the relative viability ([3]; first compound 0.06325 µM) was 0.997. For the same cell line, the relative viability ([3]; first compound 0.2 µM) was 1.19, the relative viability ([4]; first compound 0.006325 µM) was 0.521 and the relative viability ([4]; first compound 0.02 µM) was 0.709. It also gave a relative viability ([4]; first compound 0.06325 µM) of 0.777 and a relative viability ([4]; first compound 0.2 µM) of 0.637.

In the case of BEN, the relative viability ([1]; first compound 0.002 µM) is reported as 0.0683, the relative viability ([1]; first compound 0.006325 µM) is reported as 0.0717 and the relative viability ([1]; first compound 0.02 µM) is reported as 0.0575. The relative viability ([1]; first compound 0.06325 µM) was 0.0762, the relative viability ([1]; first compound 0.2 µM) was 0.0946 and the relative viability ([2]; first compound 0.04 µM) was 0.532. For the same cell line, the relative viability ([2]; first compound 0.1265 µM) was 0.438, the relative viability ([2]; first compound 0.4 µM) was 0.452 and the relative viability ([2]; first compound 1.265 µM) was 0.509. It also gave a relative viability ([2]; first compound 4 µM) of 0.413, a relative viability ([3]; first compound 0.002 µM) of 0.657 and a relative viability ([3]; first compound 0.006325 µM) of 0.767. For the same cell line, the relative viability ([3]; first compound 0.02 µM) was 0.813, the relative viability ([3]; first compound 0.06325 µM) was 0.668 and the relative viability ([3]; first compound 0.2 µM) was 0.719. For the same cell line, the relative viability ([4]; first compound 0.002 µM) was 0.491, the relative viability ([4]; first compound 0.006325 µM) was 0.435 and the relative viability ([4]; first compound 0.02 µM) was 0.374. It also gave a relative viability ([4]; first compound 0.06325 µM) of 0.484 and a relative viability ([4]; first compound 0.2 µM) of 0.559.

For CAL-12T, the relative viability ([1]; first compound 0.002 µM) was 1.17, the relative viability ([1]; first compound 0.006325 µM) was 1.05 and the relative viability ([1]; first compound 0.02 µM) was 1.14. The relative viability ([1]; first compound 0.06325 µM) was 1.3, the relative viability ([1]; first compound 0.2 µM) was 1.22 and the relative viability ([2]; first compound 0.04 µM) was 0.836. The relative viability ([2]; first compound 0.1265 µM) was 0.525, the relative viability ([2]; first compound 0.4 µM) was 0.448 and the relative viability ([2]; first compound 1.265 µM) was 0.615. The relative viability ([2]; first compound 4 µM) was 0.414, the relative viability ([4]; first compound 0.002 µM) was 0.307 and the relative viability ([4]; first compound 0.006325 µM) was 0.352. The relative viability ([4]; first compound 0.02 µM) was 0.38, the relative viability ([4]; first compound 0.06325 µM) was 0.363 and the relative viability ([4]; first compound 0.2 µM) was 0.557.

COR-L23 gave a relative viability ([1]; first compound 0.002 µM) of 0.991, a relative viability ([1]; first compound 0.006325 µM) of 0.964 and a relative viability ([1]; first compound 0.02 µM) of 1.04. It also gave a relative viability ([1]; first compound 0.06325 µM) of 0.323, a relative viability ([1]; first compound 0.2 µM) of 0.194 and a relative viability ([2]; first compound 0.04 µM) of 0.314. For the same cell line, the relative viability ([2]; first compound 0.1265 µM) was 0.299, the relative viability ([2]; first compound 0.4 µM) was 0.239 and the relative viability ([2]; first compound 1.265 µM) was 0.315. It also gave a relative viability ([2]; first compound 4 µM) of 0.281, a relative viability ([3]; first compound 0.002 µM) of 0.419 and a relative viability ([3]; first compound 0.006325 µM) of 0.465. It also gave a relative viability ([3]; first compound 0.02 µM) of 0.554, a relative viability ([3]; first compound 0.06325 µM) of 0.225 and a relative viability ([3]; first compound 0.2 µM) of 0.188. It also gave a relative viability ([4]; first compound 0.002 µM) of 0.639, a relative viability ([4]; first compound 0.006325 µM) of 0.63 and a relative viability ([4]; first compound 0.02 µM) of 0.771. The relative viability ([4]; first compound 0.06325 µM) was 0.358 and the relative viability ([4]; first compound 0.2 µM) was 0.176.

In the case of COR-L 105, the relative viability ([1]; first compound 0.002 µM) is reported as 0.674, the relative viability ([1]; first compound 0.006325 µM) is reported as 0.686 and the relative viability ([1]; first compound 0.02 µM) is reported as 0.878. It also gave a relative viability ([1]; first compound 0.06325 µM) of 0.69, a relative viability ([1]; first compound 0.2 µM) of 0.707 and a relative viability ([2]; first compound 0.04 µM) of 0.431. The relative viability ([2]; first compound 0.1265 µM) was 0.42, the relative viability ([2]; first compound 0.4 µM) was 0.353 and the relative viability ([2]; first compound 1.265 µM) was 0.424. For the same cell line, the relative viability ([2]; first compound 4 µM) was 0.433, the relative viability ([3]; first compound 0.002 µM) was 0.672 and the relative viability ([3]; first compound 0.006325 µM) was 0.692. The relative viability ([3]; first compound 0.02 µM) was 0.699, the relative viability ([3]; first compound 0.06325 µM) was 0.633 and the relative viability ([3]; first compound 0.2 µM) was 0.685. It also gave a relative viability ([4]; first compound 0.002 µM) of 0.77, a relative viability ([4]; first compound 0.006325 µM) of 0.834 and a relative viability ([4]; first compound 0.02 µM) of 0.673. The relative viability ([4]; first compound 0.06325 µM) was 0.862 and the relative viability ([4]; first compound 0.2 µM) was 0.729.

Calu-6 showed a relative viability ([1]; first compound 0.002 µM) of 0.786, a relative viability ([1]; first compound 0.006325 µM) of 0.876 and a relative viability ([1]; first compound 0.02 µM) of 0.897. It also gave a relative viability ([1]; first compound 0.06325 µM) of 0.872 and a relative viability ([1]; first compound 0.2 µM) of 0.782.

ChaGo-K-1 showed a relative viability ([1]; first compound 0.002 µM) of 1.03, a relative viability ([1]; first compound 0.006325 µM) of 0.969 and a relative viability ([1]; first compound 0.02 µM) of 0.914. The relative viability ([1]; first compound 0.06325 µM) was 0.296, the relative viability ([1]; first compound 0.2 µM) was 0.306 and the relative viability ([2]; first compound 0.04 µM) was 0.972. For the same cell line, the relative viability ([2]; first compound 0.1265 µM) was 0.928, the relative viability ([2]; first compound 0.4 µM) was 0.987 and the relative viability ([2]; first compound 1.265 µM) was 0.904. It also gave a relative viability ([2]; first compound 4 µM) of 0.901, a relative viability ([3]; first compound 0.002 µM) of 0.538 and a relative viability ([3]; first compound 0.006325 µM) of 0.531. For the same cell line, the relative viability ([3]; first compound 0.02 µM) was 0.552, the relative viability ([3]; first compound 0.06325 µM) was 0.531 and the relative viability ([3]; first compound 0.2 µM) was 0.368. For the same cell line, the relative viability ([4]; first compound 0.002 µM) was 0.582, the relative viability ([4]; first compound 0.006325 µM) was 0.577 and the relative viability ([4]; first compound 0.02 µM) was 0.608. It also gave a relative viability ([4]; first compound 0.06325 µM) of 0.47 and a relative viability ([4]; first compound 0.2 µM) of 0.239.
